{"source": "patent US20210353621A1", "about": "(priority 2020, published 2021)", "key": {"[1]": {"test_system": "enzalutamide resistant VCaP xenograft", "assay": "Enzalutamide-resistant VCaP xenograft model", "format": "in vivo"}, "[2]": {"assay": "Phase I clinical trial pharmacokinetics", "details": "male, human, in vivo, po, once daily", "from_the_text": "(§1) A traditional 3+3 dose escalation design was implemented. […] Dose increases were dependent upon toxicities."}, "[3]": {"assay": "Phase I dose escalation safety in mCRPC patients", "from_the_text": "as §1"}, "in vivo": {"assay": "in vivo", "details": "dog, po"}, "[4]": {"assay": "28-day GLP toxicology study in rats"}, "BCRP": {"biological_target": "T1, BCRP (Homo sapiens, UniProt Q9UNQ0)", "T1 sequence (Q9UNQ0 1-655)": "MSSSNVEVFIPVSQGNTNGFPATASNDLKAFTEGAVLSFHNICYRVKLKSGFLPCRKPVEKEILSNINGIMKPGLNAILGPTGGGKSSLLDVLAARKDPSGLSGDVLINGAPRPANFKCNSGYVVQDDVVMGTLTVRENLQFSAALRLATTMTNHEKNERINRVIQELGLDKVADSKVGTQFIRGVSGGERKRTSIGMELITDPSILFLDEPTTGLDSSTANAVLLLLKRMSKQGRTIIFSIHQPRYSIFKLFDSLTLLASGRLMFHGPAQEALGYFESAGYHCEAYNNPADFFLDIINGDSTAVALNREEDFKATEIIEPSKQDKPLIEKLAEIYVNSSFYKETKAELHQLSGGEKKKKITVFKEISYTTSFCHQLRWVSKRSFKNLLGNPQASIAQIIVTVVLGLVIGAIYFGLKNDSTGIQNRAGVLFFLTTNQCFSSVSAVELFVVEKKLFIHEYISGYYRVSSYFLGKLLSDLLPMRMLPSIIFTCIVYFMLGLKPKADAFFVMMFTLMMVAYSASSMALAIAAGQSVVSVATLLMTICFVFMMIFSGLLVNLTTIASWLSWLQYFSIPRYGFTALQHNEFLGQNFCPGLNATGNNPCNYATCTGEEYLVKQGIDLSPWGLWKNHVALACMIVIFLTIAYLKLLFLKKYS", "assay": "In vitro transporter inhibition, BCRP"}, "OATP1B1": {"biological_target": "OATP1B1 (Homo sapiens, UniProt Q9Y6L6)", "sequence (Q9Y6L6 whole entry)": "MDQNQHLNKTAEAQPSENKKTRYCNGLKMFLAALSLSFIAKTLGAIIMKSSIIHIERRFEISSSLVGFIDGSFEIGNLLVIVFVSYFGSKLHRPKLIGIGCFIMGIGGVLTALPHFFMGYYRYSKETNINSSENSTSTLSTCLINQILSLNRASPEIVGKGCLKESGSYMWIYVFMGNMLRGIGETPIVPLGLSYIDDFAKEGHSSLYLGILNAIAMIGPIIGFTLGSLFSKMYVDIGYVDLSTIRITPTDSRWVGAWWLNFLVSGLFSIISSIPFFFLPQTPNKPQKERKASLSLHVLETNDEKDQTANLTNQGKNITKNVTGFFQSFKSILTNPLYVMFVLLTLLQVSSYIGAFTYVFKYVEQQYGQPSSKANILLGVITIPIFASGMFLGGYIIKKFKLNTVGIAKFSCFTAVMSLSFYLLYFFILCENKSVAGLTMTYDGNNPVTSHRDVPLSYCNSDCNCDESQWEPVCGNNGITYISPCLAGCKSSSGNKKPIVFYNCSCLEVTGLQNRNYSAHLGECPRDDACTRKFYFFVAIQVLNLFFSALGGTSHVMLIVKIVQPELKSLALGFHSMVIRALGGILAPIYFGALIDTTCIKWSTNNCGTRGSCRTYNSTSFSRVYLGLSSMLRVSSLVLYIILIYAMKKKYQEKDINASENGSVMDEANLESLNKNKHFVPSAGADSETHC", "assay": "In vitro transporter inhibition, OATP1B1"}, "OATP1B3": {"biological_target": "OATP1B3 (Homo sapiens, UniProt Q9NPD5)", "sequence (Q9NPD5 whole entry)": "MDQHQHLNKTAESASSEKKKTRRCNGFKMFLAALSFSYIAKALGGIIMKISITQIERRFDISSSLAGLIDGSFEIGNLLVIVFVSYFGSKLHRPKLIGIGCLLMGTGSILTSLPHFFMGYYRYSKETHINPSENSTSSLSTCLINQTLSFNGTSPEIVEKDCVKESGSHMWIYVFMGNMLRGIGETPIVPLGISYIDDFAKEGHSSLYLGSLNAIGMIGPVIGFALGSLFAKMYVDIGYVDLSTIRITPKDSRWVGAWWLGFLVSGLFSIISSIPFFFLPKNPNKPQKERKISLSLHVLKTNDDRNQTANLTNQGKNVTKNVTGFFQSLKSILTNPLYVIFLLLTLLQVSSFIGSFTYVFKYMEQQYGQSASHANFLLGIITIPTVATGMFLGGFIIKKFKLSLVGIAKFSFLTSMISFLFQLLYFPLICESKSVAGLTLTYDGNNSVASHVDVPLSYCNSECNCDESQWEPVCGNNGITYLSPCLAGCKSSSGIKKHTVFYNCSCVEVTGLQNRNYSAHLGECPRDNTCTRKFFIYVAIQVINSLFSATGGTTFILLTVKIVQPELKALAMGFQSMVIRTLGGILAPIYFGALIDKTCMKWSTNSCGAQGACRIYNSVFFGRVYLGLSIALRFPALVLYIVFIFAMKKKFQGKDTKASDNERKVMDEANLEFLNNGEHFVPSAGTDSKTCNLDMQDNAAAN", "assay": "In vitro transporter inhibition, OATP1B3"}, "[5]": {"assay": "Preclinical pharmacokinetics, oral once daily (Table 1)", "details": "total drug concentrations"}, "[6]": {"assay": "Exploratory non-GLP assay of rosuvastatin in retained patient plasma samples", "format": "in vivo, human", "details": "2 patients taking rosuvastatin concurrently with Compound (I-g)", "from_the_text": "An exploratory, non-GLP method was developed to analyze for rosuvastatin and its major metabolite N-desmethyl rosuvastatin in retained pharmacokinetic plasma samples from the 2 patients."}, "[7]": {"details": "280 mg QD patient with rosuvastatin 20 mg QD, level before decrease"}, "[8]": {"details": "same patient, within 14 days after Compound (I-g) and rosuvastatin were discontinued"}, "[9]": {"details": "3 and 10 μM, preliminary study, solubility limitation"}}, "note": "Where two headings read alike, the source gives them in different places."}
{"smiles": "N#Cc1ccc(O[C@H]2CC[C@H](NC(=O)c3ccc(N4CCC(CN5CCN(c6cc7c(cc6F)C(=O)N(C6CCC(=O)NC6=O)C7=O)CC5)CC4)nn3)CC2)cc1Cl", "note": "(stereo partly shown) [Compound (I-g)]", "values": [{"measurement": "tumor growth inhibition", "setting": "[1]; 3 mg/kg oral once daily, compared to a control group", "value": 70, "unit": "%"}, {"measurement": "AR in enzalutamide-resistant VCaP tumors (Western blot)", "setting": "[1]; 10 mg/kg and 3 mg/kg oral, once daily, FIG. 6", "value": "reduction of AR"}, {"measurement": "lowest efficacious dose", "setting": "[1]; oral, once daily, enzalutamide-resistant VCaP model", "value": 3, "unit": "mg/kg"}, {"measurement": "AUC(0-t)", "setting": "[2]; 35 mg, Mean Day 1 AUC0-24, 35 mg oral", "value": 160, "unit": "ng·h/mL"}, {"measurement": "Cmax", "setting": "[2]; 35 mg, Mean Day 1 Cmax, 35 mg oral", "value": 11.1, "unit": "ng/mL"}, {"measurement": "AUC(0-t)", "setting": "[2]; 35 mg, Mean Day 15 AUC0-24, 35 mg oral, imputed 24 hours values", "value": 1700, "unit": "ng·h/mL"}, {"measurement": "Cmax", "setting": "[2]; 35 mg, Mean Day 15 Cmax, 35 mg oral", "value": 83, "unit": "ng/mL"}, {"measurement": "AUC(0-t)", "setting": "[2]; 70 mg, Mean Day 1 AUC0-24, 70 mg oral", "value": 300, "unit": "ng·h/mL"}, {"measurement": "Cmax", "setting": "[2]; 70 mg, Mean Day 1 Cmax, 70 mg oral", "value": 19.6, "unit": "ng/mL"}, {"measurement": "AUC(0-t)", "setting": "[2]; 70 mg, Mean Day 15 AUC0-24, 70 mg oral, imputed 24 hours values", "value": 2540, "unit": "ng·h/mL"}, {"measurement": "Cmax", "setting": "[2]; 70 mg, Mean Day 15 Cmax, 70 mg oral", "value": 141, "unit": "ng/mL"}, {"measurement": "AUC(0-t)", "setting": "[2]; 140 mg, Mean Day 1 AUC0-24, 140 mg oral", "value": 865, "unit": "ng·h/mL"}, {"measurement": "Cmax", "setting": "[2]; 140 mg, Mean Day 1 Cmax, 140 mg oral", "value": 54, "unit": "ng/mL"}, {"measurement": "AUC(0-t)", "setting": "[2]; 140 mg, Mean Day 15 AUC0-24, 140 mg oral, imputed 24 hours values", "value": 5020, "unit": "ng·h/mL"}, {"measurement": "Cmax", "setting": "[2]; 140 mg, Mean Day 15 Cmax, 140 mg oral", "value": 353, "unit": "ng/mL"}, {"measurement": "adverse events", "setting": "[3]; 35 mg/day cohort", "value": "no adverse events at grades 2, 3 or 4 were observed"}, {"measurement": "dose limiting toxicity", "setting": "[3]; 35 mg/day cohort", "value": "no dose limiting toxicity was observed"}, {"measurement": "AST/ALT elevation on second re-challenge", "setting": "[3]; 70 mg QD following discontinuation of rosuvastatin", "value": "no other AST/ALT elevation has been observed for 90 days"}, {"measurement": "AST/ALT elevation on re-challenge", "setting": "[3]; 70 mg QD while continuing rosuvastatin", "value": "second instance of Grade 3 AST/ALT elevation"}, {"measurement": "adverse events", "setting": "[3]; 70 mg/day cohort", "value": "no adverse events at grades 2, 3 or 4 have been observed, with the exception of grade 3 anemia that was unrelated to the administration of compound (I-g)"}, {"measurement": "dose limiting toxicity", "setting": "[3]; 70 mg/day cohort", "value": "no dose limiting toxicity has been observed"}, {"measurement": "adverse events", "setting": "[3]; 140 mg/day cohort", "value": "no adverse events at grades 2, 3 or 4 have been observed"}, {"measurement": "dose limiting toxicity", "setting": "[3]; 140 mg/day cohort", "value": "no dose limiting toxicity has been observed"}, {"measurement": "dose limiting toxicity", "setting": "[3]; 280 mg QD cohort (3 patients), patient taking rosuvastatin 20 mg QD", "value": "one patient experienced dose limiting toxicity (DLT) of Grade 4 AST/ALT elevation followed by Grade 4 acute renal failure"}, {"measurement": "ALT level", "setting": "[3]; [7]", "value": 4116, "unit": "U/L"}, {"measurement": "AST level", "setting": "[3]; [7]", "value": 4901, "unit": "U/L"}, {"measurement": "overall tolerability", "setting": "[3]; 18 patients, 35 mg to 280 mg QD", "value": "well tolerated"}, {"measurement": "time to resolution of Grade 3 AST/ALT elevation to Grade 1", "setting": "[3]; after dose interruption, 140 mg QD patient with rosuvastatin 40 mg QD", "value": "≤ 5", "unit": "days"}, {"measurement": "ALT level", "setting": "[3]; [8]", "value": 83, "unit": "U/L"}, {"measurement": "AST level", "setting": "[3]; [8]", "value": 280, "unit": "U/L"}, {"measurement": "histopathology correlated with AST/ALT elevations", "setting": "dogs", "value": "No correlated histopathology changes were observed"}, {"measurement": "gastrointestinal alterations", "setting": "dogs, 3, 10 or 30 mg/kg oral once daily", "value": "observed at all dose levels (including vehicle alone)"}, {"measurement": "AST and ALT", "setting": "dogs, 10 or 30 mg/kg/day, study days 14 and 29", "value": "reversible elevations of AST and ALT"}, {"measurement": "renal impairment", "setting": "dogs, 28-day GLP study", "value": "No evidence of renal impairment was observed"}, {"measurement": "prostate weights", "setting": "male dogs", "value": "decreased prostate weights"}, {"measurement": "MTD at 28 days", "setting": "in vivo", "value": "< 30", "unit": "mg/kg"}, {"measurement": "body weight and food consumption", "setting": "[4]; 80 mg/kg female rat cohort", "value": "lost body weight and consumed less food"}, {"measurement": "reversibility of findings in male high-dose rats", "setting": "[4]; male high-dose rats, 14-day recovery", "value": "fully reversible (liver hypertrophy, femur physis thickening)"}, {"measurement": "prostate weights", "setting": "[4]; male rats", "value": "decreased prostate weights"}, {"measurement": "renal impairment", "setting": "[4]; rats, 28-day GLP study", "value": "No evidence of renal impairment was observed"}, {"measurement": "tolerability", "setting": "[4]; rats, oral once daily, 28 days, males 20, 60, 120 mg/kg, females 20, 40, 120 mg/kg", "value": "well tolerated at all doses, with the exception of the 80 mg/kg female cohort"}, {"measurement": "IC50", "setting": "BCRP", "value": "> 10", "unit": "µM"}, {"measurement": "inhibition of BCRP", "setting": "BCRP; [9]", "value": "no inhibition"}, {"measurement": "IC50", "setting": "OATP1B1", "value": "> 10", "unit": "µM"}, {"measurement": "inhibition of OATP1B1", "setting": "OATP1B1; [9]", "value": "no inhibition"}, {"measurement": "IC50", "setting": "OATP1B3", "value": "> 10", "unit": "µM"}, {"measurement": "inhibition of OATP1B3", "setting": "OATP1B3; [9]", "value": "no inhibition"}, {"measurement": "Mean AUC0-24", "setting": "[5]; 1 mg/kg oral", "value": 3628, "unit": "ng·h/mL"}, {"measurement": "Mean Cmax", "setting": "[5]; 1 mg/kg oral", "value": 224, "unit": "ng/mL"}, {"measurement": "Mean AUC0-24", "setting": "[5]; 3 mg/kg oral", "value": 8106, "unit": "ng·h/mL"}, {"measurement": "Mean Cmax", "setting": "[5]; 3 mg/kg oral", "value": 507, "unit": "ng/mL"}]}
{"smiles": "CC(C)c1nc(N(C)S(C)(=O)=O)nc(-c2ccc(F)cc2)c1/C=C/[C@@H](O)C[C@@H](O)CC(=O)O", "note": "[Rosuvastatin, rosuvastatin]", "values": [{"measurement": "rosuvastatin plasma concentrations", "setting": "[6]", "value": "increased concurrently with the increase in AST/ALT levels in both patients"}]}
